Series [1] is described as follows: Test Example 1: dissolution test, JP Pharmacopoeia dissolution test 1st fluid (pH 1.2), paddle method. Format: physicochemical. The settings on record: dissolution test 1st fluid pH 1.2, 37 °C, paddle 100 rpm, at 60 min.
Series [2] is described as follows: Test Example 2: dissolution test, JP Pharmacopoeia dissolution test 2nd fluid (pH 6.8), paddle method. In kind it is physicochemical. The settings on record: dissolution test 2nd fluid pH 6.8, 37 °C, paddle 100 rpm, after 120 min.

Turning to `COc1cc2c(cc1NS(C)(=O)=O)OC(C)(C)[C@H](O)[C@H]2NCCc1ccccc1.Cl` (relative stereo) [A形結晶, N−{(3R*,4S*)−3−ヒドロキシ−6−メトキシ−2,2−ジメチル−4−(フェネチルアミノ)クロマン−7−イル}メタンスルホンアミド塩酸塩], the dissolution rate is given as 90% in series [1] and roughly 80% in series [2].

For the molecule `COc1cc2c(cc1NS(C)(=O)=O)OC(C)(C)[C@H](O)[C@H]2NCCc1ccccc1` (relative stereo) [フリー体, N−{(3R*,4S*)−3−ヒドロキシ−6−メトキシ−2,2−ジメチル−4−(フェネチルアミノ)クロマン−7−イル}メタンスルホンアミド], the dissolution rate is 90% in series [1] and roughly 65% in series [2].
